This note sets out measurements from US20240101957A1, “METHODS AND COMPOSITIONS FOR GENERATING EMBRYOS IN VITRO FROM PLURIPOTENT STEM CELLS” (California Institute of Technology, priority 2022, published 2024).

Common to all, as to format: cell-based
Assay [1] relates to inducible human embryoids. Kind of assay: Formation of organized inducible human embryoids with BMP inhibitor added between days 0-2. Particulars: added between days 0-2 post-aggregation; vs untreated control. As for the experimental part:
(§1) To generate the three-dimensional stem cell-derived model of the post-implantation embryo, RSeT cells between 2 and 6 passages post-conversion to RSeT media were passaged as normal. The media for extraembryonic-like cells (induced GATA6, induced GATA6-SOX17 or induced GATA3-AP2γ) was changed to N2B27 with 5% Knockout Serum Replacement and 1 μg/mL DOX on the following day (Day −3). This media was refreshed every 24 hours for 3 days. On Day 0 (the day of aggregation), an Aggrewell dish (34415, STEMCELL Technologies) was prepared by pre-coating with anti-adherence solution (07010, STEMCELL Technologies) and centrifuging at 2000 g for 5 minutes. Wells were washed twice with PBS prior to the addition of experiment media. This media consisted of N2B27 with 5% knockout serum replacement, 1 μg/mL doxycycline, and 10 μM Y-27632. Induced cells and wildtype ESCs were enzymatically dissociated 1 hour after addition of 10 μM Y-27632 to wells containing cells for inducible human embryoid generation. Dissociated cells were pelleted and resuspended in experiment media and placed in gelatin-coated wells for MEF depletion. After 15-30 minutes, cells were counted, mixed, and plated into an Aggrewell dish with a final calculation of 8 wildtype-ESC, 8 hypoblast-like, and 16 trophoblast-like cells plated per microwell in the Aggrewell. […]

In assay [2] the test system is human embryo-like model. Kind of assay: Differentiation of the inner epiblast-like domain (SOX2, CDX2, AP2a immunofluorescence) in treated human embryo-like model. Particulars: treated between 48- and 96-hours post-aggregation; Day 4 and Day 6; compared to untreated control or BMP4 treated structures. The protocol: as §1
The test system of assay [3] is human embryo-like model. Put plainly: Number of SOX17/NANOG/AP2γ triple-positive primordial germ cell-like cells in treated embryoids. Particulars: Day 4 embryoids; vs control. As for the experimental part:
as §1, with “Aggrewell. At 8 d.p.f., in vitro cultured human embryos had 32:24:228 epiblast:hypoblast:trophoblast cells. Importantly, however, many of the trophoblast cells were not in contact with the inner cell mass-derived tissues or were terminally differentiated. Additionally, inducible GATA6-SOX17 cells in culture proliferated slower than the other two cell populations after doxycycline addition. Therefore, an initial seeding density with: (1) a total cell number similar to that used in mouse models that allowed for successful cell sorting; (2) a ratio of cells that reflected the peri-implantation embryo; and (3) a reduced number of inducible GATA3-AP2γ cells and an increased number of inducible GATA6-SOX17 cells was utilized.” for “Aggrewell.”

Entries after “also recorded” stand apart in the source; their conditions may differ.

Turning to `c1ccc2c(-c3cnn4cc(-c5ccc(N6CCNCC6)cc5)cnc34)ccnc2c1` [LDN193189], in assay [1], the “formation of organized structures (embryoid formation)” value was “blocked formation of organized structures; also recorded: failing to form”. In the assay on human embryo-like model [2], the “CDX2 and AP2a upregulation in the inner domain” value was “lesser CDX2 and AP2a upregulation”; the “SOX2 expression in the inner domain” value is listed as “increased maintenance of SOX2 expression”. Also, the “number of primordial germ cell-like cells” value (“number” for short) in the assay with human embryo-like model [3] was “decreased”.

B1: Activin-A: an agonist of SMAD2.3 signaling (protein, UniProt P08476 311-426, looked up)
Inhibin beta A chain: GLECDGKVNICCKKQFFVSFKDIGWNDWIIAPSGYHANYCEGECPSHIAGTSGSSLSFHSTVINHYRMRGHSPFANLKSCCVPTKLRPMSMLYYDDGQNIIKKDIQNMIVEECGCS
modifications: Inhibin beta A chain
notes: an agonist of SMAD2.3 signaling
Consider B1, for which the “number” value in the assay with human embryo-like model [3] was “minimal effect”.

B2: BMP4: bone morphogenic protein-4, TGFβ superfamily member (protein, UniProt P12644 293-408, looked up)
Bone morphogenetic protein 4: SPKHHSQRARKKNKNCRRHSLYVDFSDVGWNDWIVAPPGYQAFYCHGDCPFPLADHLNSTNHAIVQTLVNSVNSSIPKACCVPTELSAISMLYLDEYDKVVLKNYQEMVVEGCGCR
With B2, the “number” value with human embryo-like model [3] is recorded as “minimal effect”.
